row,Compound,logP
1,CCc1ccc(C)cc1C,4.47
2,Cc1cccc(C(C)C)c1,4.5
3,CCc1cccc(C)c1,3.98
4,CCc1cccc(C)c1C,4.34
5,CCc1ccc(CC)cc1,4.58
6,CCCc1cccc(C)c1,4.67
7,CCc1cccc(CC)c1,4.57
8,CCCCCCCCCc1ccccc1,7.11
9,CCCc1ccccc1C,4.5
10,CCCc1ccc(C)cc1,4.6
11,Cc1ccccc1C(C)C,4.38
12,CCc1cc(C)ccc1C,4.43
13,CCc1c(C)cccc1C,4.28
14,CCC(C)c1ccccc1 (stereo unspecified),4.57
15,CCc1ccc(C)c(C)c1,4.5
16,CCc1cc(C)cc(C)c1,4.55
